23 compounds from patent publication US10344024B2, “Compounds as ROR gamma modulators” (Glenmark Pharmaceuticals S.A., priority 2015, dated 2019) can be followed below.

For this assay, the target named is T1, GST-tagged ROR gamma ligand binding domain (LBD) (Homo sapiens, UniProt P51449).
T1 construct: purchased Invitrogen
T1 sequence (P51449 269-508 limits assumed): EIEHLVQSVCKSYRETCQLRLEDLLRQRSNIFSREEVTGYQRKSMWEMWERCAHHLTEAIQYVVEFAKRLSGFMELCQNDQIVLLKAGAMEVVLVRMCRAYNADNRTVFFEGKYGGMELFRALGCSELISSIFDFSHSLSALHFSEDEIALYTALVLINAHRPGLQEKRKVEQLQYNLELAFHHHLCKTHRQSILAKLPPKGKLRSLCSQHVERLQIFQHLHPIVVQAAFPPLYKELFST
Nature of the assay: TR-FRET assay for ROR gamma (LanthaScreen co-activator peptide recruitment). Type of assay: biochemical. Conditions: for inhibition at 1 µM: compound concentration 1 μM; for inhibition at 1 µM / inhibition at 10 µM: TR-FRET ratio 520/495, percent of control; for inhibition at 10 µM: compound concentration 10 μM; for IC50: from dose response curve, nonlinear regression, read-out: IC50 range. The source says: The compounds described herein were screened for ROR gamma modulator activity using the TR-FRET assay (LanthaScreen™ available from Invitrogen of Carlsbad, Calif.) as described in JBC 2011, 286, 26: 22707-10; and Drug Metabolism and Disposition 2009, 37, 10: 2069-78.
Binding of the co-activator peptide, causes an increase in the TR-FRET signal while binding of an antagonist decreases the recruitment of the co-activator peptide, causing a decrease in the TR-FRET signal compared to control with no compound. The assay was performed using a two-step procedure, pre-incubation step with the compound followed by the detection step on addition of the anti-GST tagged terbium (Tb) and fluorescein tagged fluorophores as the acceptor.
Test compounds or reference compounds such as T0901317 (Calbiochem) were dissolved in dimethylsulfoxide (DMSO) to prepare 10.0 mM stock solutions and diluted to the desired concentration. The final concentration of DMSO in the reaction was 4% (v/v). The assay mixture was prepared by mixing 10 nM of the GST-tagged ROR gamma ligand binding domain (LBD) in the assay buffer containing 25 mM HEPES (pH 7.4), 100 mM NaCl, 5 mM DTT and 0.01% BSA with or without the desired concentration of the compound. The reaction was incubated at 22° C. for 1 hour. The pre-incubation step was terminated by addition of the detection mixture containing 300 nM Fluorescein-D22 co-activator peptide and 10 nM lantha screen Tb-anti GST antibody into the reaction mixture.
After shaking for 5 minutes the reaction was further incubated for 1 hour at room temperature and read at 4° C. on an Infinite F500 reader as per the kit instructions (Invitrogen). The inhibition of test compound was calculated based on the TR-FRET ratio of 520/495. The activity was calculated as a percent of control reaction. IC50 values were calculated from dose response curve by nonlinear regression analysis using GraphPad Prism software.
(In general: TR-FRET usually uses a lanthanide donor and a delayed reading to cut background.)

Turning to `CCC(F)(F)c1ccc(CC(=O)Nc2ccc(-c3nccnc3N3CCN(C(C)=O)CC3)cc2)cc1` [Example 24, N-(4-(3-(4-Acetylpiperazin-1-yl)pyrazin-2-yl)phenyl)-2-(4-(1,1-difluoropropyl)phenyl)acetamide], the inhibition (as a rule, how much of the control response was suppressed) at 1 µM is 61.6% and the inhibition at 10 µM amounted to 83.6%.

For the compound `CCC(F)(F)c1ccc(CC(=O)Nc2ccc(-c3nccnc3-c3ccc(=O)n(C)c3)cc2)cc1` [Example 25, 2-(4-(1,1-Difluoropropyl)phenyl)-N-(4-(3-(1-methyl-6-oxo-1,6-dihydropyridin-3-yl)pyrazin-2-yl)phenyl)acetamide], the inhibition at 1 µM came out at 18.9% and the inhibition at 10 µM came to 59.7%.

As for `CCC(F)(F)c1ccc(CC(=O)Nc2ccc(-c3nccnc3-c3ccc(Cl)cc3)cc2F)cc1` [Example 26, N-(4-(3-(4-Chlorophenyl)pyrazin-2-yl)-2-fluorophenyl)-2-(4-(1,1-difluoropropyl)phenyl)acetamide], the inhibition at 1 µM is 71.9%; the inhibition at 10 µM came to 79.6%; the concentration for half-maximal inhibition (IC50) (as a rule, the point on the concentration scale where inhibition reaches its midpoint) fell in the range of 0.1 to 0.5 µM.

`CCC(F)(F)c1ccc(CC(=O)Nc2ccc(-c3nccnc3-c3ccc(OC)cc3)cc2)cc1` [Example 27, 2-(4-(1,1-Difluoropropyl)phenyl)-N-(4-(3-(4-methoxyphenyl)pyrazin-2-yl)phenyl)acetamide]: the inhibition at 1 µM worked out at 78.6%, the inhibition at 10 µM stood at 83.5% and the 50% inhibitory concentration (IC50) is less than 0.05 µM.

Turning to `CCC(F)(F)c1ccc(CC(=O)Nc2ccc(-n3nc(C(F)(F)F)cc3-c3ccccc3Cl)cc2)cc1` [Example 29, N-(4-(5-(2-Chlorophenyl)-3-(trifluoromethyl)-1H-pyrazol-1-yl)phenyl)-2-(4-(1,1-difluoropropyl)phenyl)acetamide], the inhibition at 1 µM turned out to be 77.1%, the inhibition at 10 µM was 79.8% and the IC50 was less than 0.05 µM.

As to `CCC(F)(F)c1ccc(CC(=O)Nc2ccc(-c3ncccc3-c3ccccc3Cl)cc2)cc1` [Example 30, N-(4-(3-(2-Chlorophenyl)pyridin-2-yl)phenyl)-2-(4-(1,1-difluoropropyl)phenyl)acetamide], the inhibition at 1 µM was 81.3%, the inhibition at 10 µM came out at 82.5% and the IC50 is less than 0.05 µM.

Turning to `CCC(F)(F)c1ccc(CC(=O)Nc2ccc(-c3nccnc3-c3ccccc3C)cc2)cc1` [Example 31], the inhibition at 1 µM came out at 77.7%, the inhibition at 10 µM amounted to 81.7% and the IC50 was less than 0.05 µM.

Regarding `CCC(F)(F)c1ccc(CC(=O)Nc2ccc(-c3nccnc3N3CCN(C)CC3)cc2)cc1` [Example 32, 2-(4-(1,1-Difluoropropyl)phenyl)-N-(4-(3-(4-methylpiperazin-1-yl)pyrazin-2-yl)phenyl)acetamide], the inhibition at 1 µM was 15.3% and the inhibition at 10 µM turned out to be 65.1%.

Turning to `CCN1CCN(c2nccnc2-c2ccc(NC(=O)Cc3ccc(C(F)(F)CC)cc3)cc2)CC1` [Example 33, 2-(4-(1,1-Difluoropropyl)phenyl)-N-(4-(3-(4-ethylpiperazin-1-yl)pyrazin-2-yl)phenyl)acetamide], the inhibition at 1 µM worked out at 27.3% and the inhibition at 10 µM stood at 75.8%.

As to `CCC(F)(F)c1ccc(CC(=O)Nc2ccc(-c3cccnc3-c3ccc(Cl)cc3)cc2)cc1` [Example 34, N-(4-(2-(4-Chlorophenyl)pyridin-3-yl)phenyl)-2-(4-(1,1-difluoropropyl)phenyl)acetamide], the inhibition at 1 µM turned out to be 57.9% and the inhibition at 10 µM amounted to 66.8%.

Turning to `CCC(F)(F)c1ccc(CC(=O)Nc2ccc(-c3cnccc3-c3ccc(Cl)cc3)cc2)cc1` [Example 35, N-(4-(4-(4-Chlorophenyl)pyridin-3-yl)phenyl)-2-(4-(1,1-difluoropropyl)phenyl)acetamide], the inhibition at 1 µM stood at 72.8%, the inhibition at 10 µM stood at 73.3% and the IC50 lay within 0.1 to 0.5 µM.

On to `CCC(F)(F)c1ccc(CC(=O)Nc2ccc(-c3nccnc3N3C[C@@H](C)O[C@@H](C)C3)cc2)cc1` [Example 36, 2-(4-(1,1-Difluoropropyl)phenyl)-N-(4-(3-((25,6R)-2,6-dimethylmorpholino)pyrazin-2-yl)phenyl)acetamide], for which the inhibition at 1 µM came out at 2.6% and the inhibition at 10 µM is 8.3%.

With `CC(O)C(F)(F)c1ccc(CC(=O)Nc2ccc(-c3nccnc3-c3ccccc3Cl)cc2)cc1` (centres unmarked) [Example 37, N-(4-(3-(2-Chlorophenyl)pyrazin-2-yl)phenyl)-2-(4-(1,1-difluoro-2-hydroxypropyl)phenyl)acetamide], the inhibition at 1 µM came out at 71.1%, the inhibition at 10 µM was 73.5% and the IC50 was less than 0.05 µM.

On to `CCC(F)(F)c1ccc(CC(=O)Nc2ccc(-n3nc(C)cc3-c3ccc(Cl)cc3Cl)cc2)cc1` [Example 38, N-(4-(5-(2,4-Dichlorophenyl)-3-methyl-1H-pyrazol-1-yl)phenyl)-2-(4-(1,1-difluoropropyl)phenyl)acetamide], for which the inhibition at 1 µM is 70.7%, the inhibition at 10 µM came to 74.9% and the IC50 is 0.1 to 0.5 µM.

As for `CC(O)C(F)(F)c1ccc(CC(=O)Nc2ccc(-c3nccnc3-c3ccc(F)cc3Cl)cc2)cc1` (centres unmarked) [Example 39, N-(4-(3-(2-Chloro-4-fluorophenyl)pyrazin-2-yl)phenyl)-2-(4-(1,1-difluoro-2-hydroxypropyl)phenyl)acetamide], the inhibition at 1 µM was found to be 65.5% and the inhibition at 10 µM was found to be 72.8%.

For `CCc1ccccc1-c1nccnc1-c1ccc(NC(=O)Cc2ccc(C(F)(F)C(C)O)cc2)cc1` (centres unmarked) [Example 40, 2-(4-(1,1-Difluoro-2-hydroxypropyl)phenyl)-N-(4-(3-(2-ethylphenyl)pyrazin-2-yl)phenyl)acetamide], the inhibition at 1 µM turned out to be 71.4%, the inhibition at 10 µM came out at 76.9% and the IC50 is less than 0.05 µM.

Consider `CCC(F)(F)c1ccc(CC(=O)Nc2ccc(-c3nccnc3N3CCN(CCOC)CC3)cc2)cc1` [Example 41, 2-(4-(1,1-Difluoropropyl)phenyl)-N-(4-(3(4-(2-methoxyethyl)piperazin-1-yl)pyrazin-2-yl)phenyl)acetamide], for which the inhibition at 1 µM was determined as 4.2% and the inhibition at 10 µM turned out to be 48.7%.

`CCC(F)(F)c1ccc(CC(=O)Nc2ccc(-c3nccnc3N3CCN(C(C)=O)CC3C)cc2)cc1` (centres unmarked) [Example 42, N-(4-(3-(4-Acetyl-2-methylpiperazin-1-yl)pyrazin-2-yl)phenyl)-2-(4-(1,1-difluoropropyl)phenyl)acetamide]: the inhibition at 1 µM turned out to be 51.9% and the inhibition at 10 µM came to 76.1%.

On to `CCC(F)(F)c1ccc(CC(=O)Nc2ccc(-c3nccnc3-c3ccc(F)cc3C)cc2)cc1` [Example 44, 2-(4-(1,1-Difluoropropyl)phenyl)-N-(4-(3-(4-fluoro-2-methylphenyl)pyrazin-2-yl)phenyl)acetamide], for which the inhibition at 1 µM was determined as 76.9%, the inhibition at 10 µM came to 84.1% and the half-maximal inhibitory concentration (IC50) was less than 0.05 µM.

As to `CCC(F)(F)c1ccc(CC(=O)Nc2ccc(-c3nccnc3-c3ccc(F)cc3Cl)cc2)cc1` [Example 45, N-(4-(3-(2-Chloro-4-fluorophenyl)pyrazin-2-yl)phenyl)-2-(4-(1,1-difluoropropyl)phenyl)acetamide], the inhibition at 1 µM was determined as 81.1%, the inhibition at 10 µM stood at 80.8% and the 50% inhibitory concentration (IC50) is less than 0.05 µM.

For the compound `CCC(F)(F)c1ccc(CC(=O)Nc2ccc(-c3ccncc3-c3ccc(Cl)cc3)cc2)cc1` [Example 46, N-(4-(3-(4-Chlorophenyl)pyridin-4-yl)phenyl)-2-(4-(1,1-difluoropropyl)phenyl)acetamide], the inhibition at 1 µM is 70% and the inhibition at 10 µM came to 77.1%.

Consider `CCC(F)(F)c1ccc(CC(=O)Nc2ccc(-c3nccnc3-c3ccc(C)cc3C)cc2)cc1` [Example 47, 2-(4-(1,1-Difluoropropyl)phenyl)-N-(4-(3-(2,4-dimethylphenyl)pyrazin-2-yl)phenyl)acetamide], for which the inhibition at 1 µM stood at 82.3%, the inhibition at 10 µM was 82.3% and the half-inhibitory concentration (IC50) was less than 0.05 µM.

As for `CCC(F)(F)c1ccc(CC(=O)Nc2ccc(-c3nccnc3-c3ccc(C)cc3F)cc2)cc1` [Example 48, 2-(4-(1,1-Difluoropropyl)phenyl)-N-(4-(3-(2-fluoro-4-methylphenyl)pyrazin-2-yl)phenyl)acetamide], the inhibition at 1 µM was determined as 79.2%, the inhibition at 10 µM was 84.1% and the IC50 is less than 0.05 µM.
